The values that follow come from paper PMC12308784, “Organometallic Half-Sandwich Complexes of 1,10-Phenanthroline Derivatives with Improved Solubility, Albumin-Binding, and Nanoformulation Potential Targeting Drug Resistance in Cancer” (Inorganic Chemistry, 2025).

Series [1] in a line: time-dependent stability in PBS’ by UV–vis and 1H NMR. The format is physicochemical. The note with it: pH 7.4, 100 mM chloride. How it is done: As a first step, time-dependent stability measurements were conducted by UV–visible (UV–vis) for all the metal complexes (Figure S13), focusing on their stability in a modified phosphate buffer saline (PBS’) medium to mimic conditions relevant to intravenous applications regarding the pH (7.4) and the chloride ion concentration (100 mM). […] Unfortunately, determining the equilibrium constants for direct complex formation was not possible due to the poor solubility of the ligands in water. […] The robust stability of the analogous IrCp* complexes was also reported.
Figure S14. Time-dependent UV -Vis spectra of metal complexes (a) cRuCymBP = 69 µM; (b) cRhCp*BP =
66 µM; (c) cRuCymDCP = 99 µM; (d) cRhCp*DCP = 85 µM) in PBS' buffer over 24 h (a-d). Spectra were recorded
Figure S15. Time-dependent 1H NMR spectra of metal complex RhCp*BP (66 µM) at pH 7.40 over 5 days.
{10% (v/v) D2O / 90% (v/v) H2O; PBS’; t = 25 °C} […]

Series [2] is described as follows: release in PBS’ by modified equilibrium dialysis. The format is physicochemical. The note with it: nonformulated complex, PBS’ pH 7.4. How it is done: The release behavior of RhCp*BP in PBS’ buffer (pH = 7.4) was monitored using a modified equilibrium dialysis device (Figures S22 and S23), and the absorbance (proportional to the complex concentration) was measured for the dialysate phase by online UV–vis spectrophotometry over a period of 16 h.
The release experiments were conducted in PBS’ medium using modified rapid equilibrium dialysis (RED) inserts of Thermo Scientific. Briefly, the receiver compartment of the RED insert was removed in order to fit the dialysis bag into a regular 1 cm quartz cuvette (see Figure S19 for the layout). The dialysis bag (donor compartment) contained 300 μL of aqueous solution of the formulation or the metal complex alone (c = 60 μM) or the HSA or HTP-based formulations. The cuvette was the acceptor/receiver compartment containing PBS’ buffer (2.0 mL). The whole device was capped with the parafilm and the buffer in the cuvette was continuously stirred; no stirring was applied in the RED insert. The release of the complex into the buffer was monitored online using an Agilent Cary 3500 eight-channel photometer. All samples were done in duplicate.
In general terms: In equilibrium dialysis free small molecules cross a membrane that holds back macromolecules.

For “[Rh(III)(η^5-C5Me5)(bathophenanthroline)Cl]Cl [RhCp*BP]”, the “stability in PBS’ over 24 h” value in series [1] is “no changes”. Also, the “time for complete diffusion into PBS’ medium” value in series [2] is reported as “approximately 9 h”.
